What was measured:
[1] = test system: Wistar, adult, male, rats; assay: induction of status epilepticus by systemic pilocarpine; format: in vivo; conditions: pilocarpine 320 mg/Kg intraperitoneal, average
Description: (§1) Biperiden, together with atropine, is a classic cholinergic antagonist and is known to block muscarinic receptors. These drugs are known by their abilities in blocking the cholinergic transmission which is otherwise mediated through muscarinic receptors. For our experiments we used Wistar, adult, male, rats which were maintained under controled conditions of temperature, light/dark cylces and kept in groups of up to 6 animals in polypropilene boxes with free access to tap water and rat chow pellets. Rats were subject to the intraperitoneal administration of pilocarpine in a dose of 320 mg/Kg for the induction of status epilepticus.
As expected, the systemic administration of pilocarpine lead to a sequence of behavioral alterations such as akinesia, body tremor and/or myoclonic jerks of the head and oro-facial stereotyped movements accompained by profuse salivation. Status epilepticus, a condition of uninterrupt epileptic seizure, developed on average 19 ± 5 min after the injetion of pilocarpine. Three hours after the onset of status epilepticus the animals in the experimental group (n=10) were intraperitoneally injected with the first initial dose of biperiden (8 mg/kg). […]

[2] = test system: Wistar, adult, male, rats; assay: pilocarpine model of epilepsy: video monitoring of spontaneous epileptic seizures after status epilepticus; format: in vivo
Description: The current invention was based on an experimental model of epilepsy in which in rats the induction of a brain lesion is accomplished through the administration of pilocarpine, a cholinergic agonist. According to the original description of this model, approximately 20-30 days after pilocarpine injection in either rats or mice, there is the onset of spontaneous recurrent epileptic seizures (Turski WA, Cavalheiro EA, Schwarz M, Czuczwar SJ, Kleinrok Z and Turski L. Limbic seizures produced by pilocarpine in rats: behavioural, electroencephalographic and neuropathological study. Behavioral Brain Research, 9:315-335, 1983; Mello LEAM, Cavalheiro EA, Babb TL, Kupfer WR, Pretorius JK, Tan AM and Finch. DM. Circuit mechanisms of seizures in the pilocarpine model of chronic epilepsy: cell loss and mossy fiber sprouting. Epilepsia 34:985-995, 1993). Due to its special features the pilocarpine model is currently one of the 3 most widely used experimental models in the study of epilepsy.
as §1
As expected, the systemic administration of pilocarpine lead to a sequence of behavioral alterations such as akinesia, body tremor and/or myoclonic jerks of the head and oro-facial stereotyped movements accompained by profuse salivation. Status epilepticus, a condition of uninterrupt epileptic seizure, developed on average 19 ± 5 min after the injetion of pilocarpine. Three hours after the onset of status epilepticus the animals in the experimental group (n=10) were intraperitoneally injected with the first initial dose of biperiden (8 mg/kg). This dose represents the concentration needed to provoke memory impairments in rodents (Roldan G, Bolanos-Badillo E, Gonzales-Sanches H, Quirarte GL and Prado-Alcala RA JW. Selective M1 muscarinic receptor antagonists disrupt memory consolidation of inhibitory avoidance in rats. Neurosci. Lett., 230:93-6, 1997).
For the animals in the control group (n=6), […] after the onset of status epileticus, administration of sterile saline solution (0.9% NaCl), rather than biperiden, was started with a similar protocol.
In the pilocarpine model of epilepsy, a few weeks after the administration of pilocarpine and the induction of status epilepticus, the animals develop spontaneous epileptic seizures which reccur for as long as the animal are allowed to live. […]
Approximately 15 to 20 days after the induction of status epilepticus, the reported duration of the latent period for the onset of spontaneous seizures, monitoring of the behavioral seizures with a videocamera for approximately 12 hours/week was initiated. […] Animals were video monitored for approximately 120 days after the induction of status epilepticus. The recorded video tapes were routinelly assessed in a 29 inches wide television screen and the seizures observed for each animal were recorded.

| SMILES | time to development of status epilepticus after the injection of pilocarpine [1] [min] | qualitative or quantitative nature of each individual seizure, biperiden-treated vs control group ([2]; comparison between the two groups) | onset of spontaneous recurrent seizures after prophylactic use following pilocarpine lesion ([2]; prophylactic use after pilocarpine lesion, vs animals not treated with biperiden) | mean frequency of spontaneous epileptic seizures, control group relative to experimental group (treated with biperiden) ([2]; ratio control / biperiden-treated group, Table 2) [times higher] | Spontaneous seizures/h ([2]; rats, pilocarpine 320 mg/Kg i.p., biperiden 8 mg/kg i.p. every 8 hours for 10 days, n=10, video monitored about 120 days, mean ± standard deviation, p < 0.02 vs control (0.0401 ± 0.0113)) [seizures/h] | Latency (weeks): length of the latent period for the onset of the first recorded spontaneous epileptic seizure ([2]; rats, pilocarpine 320 mg/Kg i.p., biperiden 8 mg/kg i.p. starting 3 h after onset of status epilepticus, every 8 hours for 10 days, n=10, mean ± standard deviation, p < 0.03 vs control (3.2 ± 1.1)) [weeks] |
| --- | --- | --- | --- | --- | --- | --- |
| CC[C@@H]1C(=O)OC[C@@H]1Cc1cncn1C [pilocarpine] | 19 ± 5 |  |  |  |  |  |
| OC(CCN1CCCCC1)(c1ccccc1)C1CC2C=CC1C2 (stereo not drawn) [biperiden] |  | no differences | significantly retarded or even supressed the onset of spontaneous recurrent seizures | 2 | 0.0202 ± 0.0047 | 6.0 ± 1.1 |
